Source: patent US20180028507A1, “3-CARBAMOYLPHENYL-4-CARBOXAMIDE AND ISOPHTALAMIDE DERIVATIVES AS INHIBITORS OF THE WNT SIGNALLING PATHWAY” (Bayer Pharma Aktiengesellschaft, priority 2015, published 2018)

Legend:
[1] = tested on: constitutive active colorectal cancer cell (CRC) Wnt pathway; assay: HCT116 TOPFlash cellular reporter assay (Super TopFlash vector, luciferase); format: cell-based; details: Homo sapiens, HCT-116; HCT116 Super TopFlash reporter cells, 36 hours incubation, dilution series 50 μM to 15 nM, luciferase expression
Procedure: In order to discover and characterize small molecules which inhibit the constitutive active colorectal cancer cell (CRC) Wnt pathway, a cellular reporter assay was employed. The corresponding assay cell was generated by transfection of the colorectal cancer cell line HCT116 (ATCC, #CCL-247) with the Super TopFlash vector (Morin, Science 275, 1997, 1787-1790; Molenaar et al., Cell 86 (3), 1996, 391-399). The HCT116 cell line is cultivated at 37° C. and 5% CO2 in DMEM/F-12 (Life Technologies, #11320-074), supplemented with 2 mM glutamine, 20 mM HEPES, 1.4 mM pyruvate, 0.15% Na-bicarbonate and 10% foetal bovine serum (GIBCO, #10270), this cancer cell line is pathophysiological relevant since it carries a deletion of position S45 in the β-catenin gene, leading to constitutive active Wnt signaling. Stable transfectants were generated by cotransfection with pcDNA3 and selection of stable transfected cells with 1 mg/ml G418.
(§1) In preparation of the assay, the two cell lines were plated 24 hours before at 10000 cells per well of a 384 micro titre plate (MTP) in 30 μL growth medium. Selective inhibitory activity for small molecules on the mutated Wnt pathway was determined after parallel incubation of both (TOP and FOP) HCT116 reporter cell lines with a compound dilution series from 50 μM to 15 nM in steps of 3.16-fold dilutions in CAFTY buffer (130 mM NaCl, 5 mM KCl, 20 mM HEPES, 1 mM MgCl2, 5 mM NaHCO3, pH 7.4) containing 2 mM Ca^2+ and 0.01% BSA. The compounds were thereby serially prediluted in 100% DMSO and thereafter in addition 50 fold into the CAFTY compound dilution buffer (described above). From this dilution 10 μL were added to the cells in 30 μL growth medium and incubated for 36 hours at 37° C. and 5% CO2.

[2] = tested on: HCT116 cells cotransfected with the FOP control vector (non-functional TCF elements); assay: HCT116 FOPFlash control reporter assay (FOP control vector, luciferase); format: cell-based; details: Homo sapiens, HCT-116, 36 hours incubation, dilution series 50 μM to 15 nM, luciferase expression
Procedure: In a parallel approach, HCT116 cells were cotransfected with the FOP control vector and pcDNA3. The FOP vector is identical to the TOP construct, but it contains instead of functional TCF elements a randomized, non-functional sequence. For this transfection a stable transfected cell line was generated as well.
as §1

Row | Structure (SMILES) | IC50 [1] | IC50 [2]
1 | O=C(Nc1ccc(-c2ccccc2)cc1)c1ccc(OC(F)(F)F)c(C(=O)Nc2cccnc2)c1 [Example 45, N^1-(biphenyl-4-yl)-N^3-(pyridin-3-yl)-4-(trifluoromethoxy) isophthalamide] | 2.6 µM | ≥ 50 µM
2 | COc1ccc(NC(=O)c2ccc(-c3ccccc3)cc2)cc1C(=O)Nc1ccncc1 [Example 1, N-[4-methoxy-3-(pyridin-4-ylcarbamoyl)phenyl]biphenyl-4-carboxamide] | 0.483 µM | 35 µM
3 | O=C(Nc1ccc(-c2ccccc2)cc1)c1ccc(OC(F)(F)F)c(C(=O)NCc2ccccn2)c1 [Example 7, N^1-(biphenyl-4-yl)-N^3-(pyridin-2-ylmethyl)-4-(trifluoromethoxy)isophthalamide] | 0.359 µM | ≥ 50 µM
4 | O=C(Nc1ccc(-c2ccccc2F)nc1)c1ccc(OC(F)(F)F)c(C(=O)NCc2cccnc2)c1 [Example 18, N^1-[6-(2-fluorophenyl)pyridin-3-yl]-N^3-(pyridin-3-ylmethyl)-4-(trifluoromethoxy)isophthalamide] | 0.95 µM | 18.5 µM
5 | O=C(Nc1ccc(-c2ccccc2F)nc1)c1ccc(OC(F)(F)F)c(C(=O)Nc2ccncc2F)c1 [Example 42, N^1-[6-(2-fluorophenyl)pyridin-3-yl]-N^3-(3-fluoropyridin-4-yl)-4-(trifluoromethoxy) isophthalamide] | 2.13 µM | ≥ 50 µM
6 | CC(C)(C)OC(=O)Nc1ccc(CNC(=O)c2cc(C(=O)Nc3ccc(-c4ccccc4)cc3)ccc2OC(F)(F)F)cn1 [Example 24, tert-butyl [5-({[5-(biphenyl-4-ylcarbamoyl)-2-(trifluoromethoxy)benzoyl]amino}methyl)pyridin-2-yl]carbamate] | 0.835 µM | 23 µM
7 | CCOCCCNC(=O)c1cc(NC(=O)c2ccc(-c3ccccc3)cc2)ccc1OC [Example 5, N-{3-[(3-ethoxypropyl)carbamoyl]-4-methoxyphenyl}biphenyl-4-carboxamide] | 0.608 µM | 31 µM
8 | COc1ccc(C(=O)Nc2ccc(-c3ccccc3)cc2)cc1C(=O)Nc1cccnc1 [Example 55, N^1-(biphenyl-4-yl)-4-methoxy-N^3-(pyridin-3-yl)isophthalamide] | 4.9 µM | 23 µM
9 | CC(C)(C)OC(=O)Nc1ccc(CNC(=O)c2cc(C(=O)Nc3ccc(-c4ccccc4F)nc3)ccc2OC(F)(F)F)cn1 [Example 48, tert-butyl [5-({[5-{[6-(2-fluorophenyl)pyridin-3-yl]carbamoyl}-2-(trifluoromethoxy)benzoyl]amino}methyl)pyridin-2-yl]carbamate] | 2.05 µM | 37 µM
10 | Nc1ccc(CNC(=O)c2cc(C(=O)Nc3ccc(-c4ccccc4)cc3)ccc2OC(F)(F)F)cn1 [Example 29, N^3-[(6-aminopyridin-3-yl)methyl]-N^1-(biphenyl-4-yl)-4-(trifluoromethoxy)isophthalamide] | 0.76 µM | 16 µM
11 | COc1ccc(C(=O)Nc2ccc(-c3ccccc3F)nc2)cc1C(=O)Nc1cncc(C)c1 [Example 63, N^1-[6-(2-fluorophenyl)pyridin-3-yl]-4-methoxy-N^3-(5-methylpyridin-3-yl)isophthalamide] | 26.7 µM | ≥ 50 µM
12 | COc1ccc(C(=O)Nc2ccc(-c3ccccc3F)nc2)cc1C(=O)Nc1ccncc1 [Example 56, N^1-[6-(2-fluorophenyl)pyridin-3-yl]-4-methoxy-N^3-(pyridin-4-yl)isophthalamide] | 1.8 µM | 8 µM
13 | COc1ccc(NC(=O)c2ccc(-c3ccccc3)cc2)cc1C(=O)NCc1ccccn1 [Example 32, N-{4-methoxy-3-[(pyridin-2-ylmethyl)carbamoyl]phenyl} biphenyl-4-carboxamide] | 1.33 µM | ≥ 50 µM
14 | COc1ccc(C(=O)Nc2ccc(-c3ccccc3)cc2)cc1C(=O)Nc1ccncc1 [Example 11, N^1-(biphenyl-4-yl)-4-methoxy-N^3-(pyridin-4-yl)isophthalamide] | 0.415 µM | 11.5 µM
15 | COc1ccc(C(=O)Nc2ccc(-c3ccccc3F)nc2)cc1C(=O)Nc1ccncc1C [Example 46, N^1-[6-(2-fluorophenyl)pyridin-3-yl]-4-methoxy-N^3-(3-methylpyridin-4-yl)isophthalamide] | 2.23 µM | ≥ 50 µM
16 | Nc1cccc(CNC(=O)c2cc(C(=O)Nc3ccc(-c4ccccc4F)nc3)ccc2OC(F)(F)F)n1 [Example 49, N^3-[(6-aminopyridin-2-yl)methyl]-N^1-[6-(2-fluorophenyl)pyridin-3-yl]-4-(trifluoromethoxy) isophthalamide] | 4.8 µM | ≥ 50 µM
17 | COc1ccc(C(=O)Nc2ccc(-c3ccccc3)cc2)cc1C(=O)Nc1ccncc1Cl [Example 15, N^1-(biphenyl-4-yl)-N^3-(3-chloropyridin-4-yl)-4-methoxyisophthalamide] | 0.9 µM | ≥ 50 µM
18 | COc1ccc(C(=O)Nc2ccc(-c3ccccc3)cc2)cc1C(=O)NCc1cccnc1 [Example 16, N^1-(biphenyl-4-yl)-4-methoxy-N^3-(pyridin-3-ylmethyl)isophthalamide] | 0.64 µM | ≥ 50 µM
19 | COc1ccc(C(=O)Nc2ccc(-c3ccccc3F)nc2)cc1C(=O)Nc1cccnc1C [Example 25, N^1-[6-(2-fluorophenyl)pyridin-3-yl]-4-methoxy-N^3-(2-methylpyridin-3-yl)isophthalamide] | 0.84 µM | ≥ 50 µM
20 | O=C(Nc1ccc(-c2ccccc2)cc1)c1ccc(OC(F)(F)F)c(C(=O)Nc2ccncc2F)c1 [Example 22, N^1-(biphenyl-4-yl)-N^3-(3-fluoropyridin-4-yl)-4-(trifluoromethoxy)isophthalamide] | 0.375 µM | ≥ 50 µM
21 | O=C(Nc1ccc(-c2cccnc2)cn1)c1ccc(OC(F)(F)F)c(C(=O)NCc2cccnc2)c1 [Example 30, N^1-(3,3′-bipyridin-6-yl)-N^3-(pyridin-3-ylmethyl)-4-(trifluoromethoxy)isophthalamide] | 0.42 µM | 31.5 µM
22 | COc1ccc(NC(=O)c2ccc(-c3ccccc3)cc2)cc1C(=O)NCCCOC(C)C [Example 6, N-{3-[(3-isopropoxypropyl)carbamoyl]-4-methoxyphenyl}biphenyl-4-carboxamide] | 0.383 µM | 14.4 µM
23 | COc1cnccc1NC(=O)c1cc(C(=O)Nc2ccc(-c3ccccc3F)nc2)ccc1OC [Example 28, N^1-[6-(2-fluorophenyl)pyridin-3-yl]-4-methoxy-N^3-(3-methoxypyridin-4-yl)isophthalamide] | 0.225 µM | ≥ 50 µM
24 | COCCCN(C)C(=O)c1cc(NC(=O)c2ccc(-c3ccccc3)cc2)ccc1OC [Example 4, N-{4-methoxy-3-[(3-methoxypropyl)(methyl)carbamoyl]phenyl}biphenyl-4-carboxamide] | 0.815 µM | 12.2 µM
25 | COCC(C)(C)CNC(=O)c1cc(NC(=O)c2ccc(-c3ccccc3)cc2)ccc1OC [Example 35, N-{4-methoxy-3-[(3-methoxy-2,2-dimethylpropyl)carbamoyl]phenyl}biphenyl-4-carboxamide] | 4.35 µM | ≥ 50 µM
26 | O=C(Nc1ccc(-c2ccccc2)cc1)c1ccc(OC(F)(F)F)c(C(=O)Nc2ccncc2)c1 [Example 20, N^1-(biphenyl-4-yl)-N^3-(pyridin-4-yl)-4-(trifluoromethoxy)isophthalamide] | 0.335 µM | 7.55 µM
27 | COc1ccc(C(=O)Nc2ccc(-c3ccccc3F)nc2)cc1C(=O)Nc1ccnc(C)c1 [Example 26, N^1-[6-(2-fluorophenyl)pyridin-3-yl]-4-methoxy-N^3-(2-methylpyridin-4-yl)isophthalamide] | 0.36 µM | ≥ 50 µM
28 | O=C(Nc1ccc(-c2ccccc2)cc1)c1ccc(OC(F)(F)F)c(C(=O)NCc2cccnc2)c1 [Example 21, N^1-(biphenyl-4-yl)-N^3-(pyridin-3-ylmethyl)-4-(trifluoromethoxy)isophthalamide] | 0.16 µM | 32.5 µM
29 | COc1ccc(NC(=O)c2ccc(-c3ccccc3)cc2)cc1C(=O)NCc1ccccc1 [Example 33, N-[3-(benzylcarbamoyl)-4-methoxyphenyl]biphenyl-4-carboxamide] | 3.35 µM | ≥ 50 µM
30 | COc1ccc(C(=O)Nc2ccc(-c3ccccc3)cc2)cc1C(=O)Nc1ccncc1F [Example 14, N^1-(biphenyl-4-yl)-N^3-(3-fluoropyridin-4-yl)-4-methoxyisophthalamide] | 0.144 µM | ≥ 50 µM
